Among the data in BindingDB's records for doi:10.1021/bi030031h (Medical College of Ohio, 2003) are IC50, Ki and Kd values, retold here.

For orientation: IC50 means the concentration that gives 50% inhibition. Read a low IC50 as higher potency. Broadly, the Ki is the equilibrium dissociation constant of an inhibitor or competing ligand from its target. Read a high Ki as weaker binding. As a reminder, the Kd is the constant that tells how readily two partners part at equilibrium. A higher Kd goes with weaker binding.

The target in the assay is T1, Glycine--tRNA ligase (Bombyx mori, UniProt Q04451).
T1 sequence (Q04451 whole entry): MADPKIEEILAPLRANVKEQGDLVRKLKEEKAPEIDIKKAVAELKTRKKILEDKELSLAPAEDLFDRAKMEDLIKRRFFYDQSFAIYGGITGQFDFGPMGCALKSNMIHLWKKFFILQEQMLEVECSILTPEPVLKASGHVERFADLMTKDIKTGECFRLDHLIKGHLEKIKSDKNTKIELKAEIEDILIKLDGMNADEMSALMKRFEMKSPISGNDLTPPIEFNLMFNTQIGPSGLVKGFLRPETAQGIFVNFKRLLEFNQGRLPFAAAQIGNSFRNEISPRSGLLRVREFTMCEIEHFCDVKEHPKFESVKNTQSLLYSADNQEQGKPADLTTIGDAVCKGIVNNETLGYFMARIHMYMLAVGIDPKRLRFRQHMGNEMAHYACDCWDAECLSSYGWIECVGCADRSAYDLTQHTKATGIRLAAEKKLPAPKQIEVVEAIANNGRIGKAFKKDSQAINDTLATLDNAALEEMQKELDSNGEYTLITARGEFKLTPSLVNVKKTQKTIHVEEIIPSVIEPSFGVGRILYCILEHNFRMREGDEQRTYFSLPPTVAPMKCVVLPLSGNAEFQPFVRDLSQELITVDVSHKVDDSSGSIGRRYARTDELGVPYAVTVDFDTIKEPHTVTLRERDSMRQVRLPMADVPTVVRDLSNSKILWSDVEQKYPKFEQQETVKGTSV
Kind of assay: In Vitro Enzyme Activity Assay. The following applies: pH 7.5; 25 °C. The source says: Aminoacyl-tRNA synthetase assays were measuring the incorporation of [14C] amino acid into tRNA.
`Nc1ncnc2c1ncn2[C@@H]1O[C@H](COP(=O)(O)OP(=O)(O)OP(=O)(O)O)[C@@H](O)[C@H]1O`: the IC50 came out at 100 µM and the Ki is 13 µM.

In turn, `NCC(=O)NS(=O)(=O)OC[C@H]1O[C@@H](n2cnc3c(N)ncnc32)[C@H](O)[C@@H]1O` [5-O-[N-(L-glycyl)sulfamoyl]adenosine] yielded an IC50 of 2 µM, a dissociation constant Kd of 0.27 µM and a Ki of 0.05 µM.

On to `Nc1ncnc2c1ncn2[C@@H]1O[C@H](COP(=O)(O)OP(=O)(O)NP(=O)(O)O)[C@@H](O)[C@H]1O` [AMP.P[NH]P], for which the midpoint of inhibition, the IC50, lay at 100 µM and the affinity corresponds to a Ki of 20 µM.

`Nc1ncnc2c1ncn2[C@@H]1O[C@H](COP(=O)(O)O)[C@@H](O)[C@H]1O` [adenosine 5 -monophosphate] registered an IC50 of 800 µM and a Ki of 80 µM.

The molecule `Nc1ncnc2c1ncn2[C@@H]1O[C@H](COP(=O)(O)OP(=O)(O)CP(=O)(O)O)[C@@H](O)[C@H]1O` [adenylylmethylenediphosphonate] gave a concentration for half-maximal inhibition (IC50) of 10 µM and a Ki of 0.8 µM.

As to `Nc1ncnc2c1ncn2[C@@H]1O[C@H](COP(=O)(O)CP(=O)(O)O)[C@@H](O)[C@H]1O` [alpha, beta-methyleneadenosine 5 -diphosphate], 600 µM corresponded to half-maximal inhibition (IC50) and the Ki is 60 µM.
